Publication PMC5410595, “In Vitro and In Silico Antidiabetic and Antimicrobial Evaluation of Constituents from Kickxia ramosissima (Nanorrhinum ramosissimum)” (Frontiers in Pharmacology, 2017)
≈ marks a conversion by molar mass, not a printed value. Where “and” joins values, the source holds several entries; their conditions need not be identical. Identical values can stand only once. Entries after “also recorded” stand apart in the source; their conditions may differ. Values belong to the molecule of their own block, whether it stands above or below them.

Columns and labels:
[1] = tested on: formation of AGEs (BSA-glucose); test: BSA-glucose antiglycation assay; assay type: biochemical; conditions: for IC50: read-out: Protein glycation BSA-Glucose IC50
Method: (§1) The BSA-glucose and BSA-MGO antiglycation assays were performed as reported before ([Amin et al., 2016]). The test protocol is attached as Supplementary Material ([Amin et al., 2016]).
28 Antiglycation assay (BSA-Glucose assay)
29 In the BSA-glucose assay the prevention of AGEs formation is investigated by determining the
30 fluorescence of the complex formed after incubation of a sugar (glucose) with protein (BSA) in
31 the presence or absence of test compounds. The antiglycation assay was performed according to
32 the method developed by Matsuura et al. (2002) with minor modifications. […]
37 DMSO. The mixtures were incubated at 60°C for 48 h. After incubation, the reaction mixture
38 was allowed to cool down at room temperature. Then 100 µL reaction mixture was transferred
39 to a new plastic tube (1.5 mL) and the reaction was stopped by adding 10 μL of 100% (w/v)
40 trichloroacetic acid (TCA) and to precipitate proteins. The TCA-added mixture was kept at 4°C
41 for 10 min, followed by centrifugation (14000 rpm, 4 °C, 4 min). The supernatant containing
42 unreacted D-glucose, test sample and interfering substances was discarded, whereas the
44 8.1 mM Na2HPO4, 2.68 mM KCl, 1.47 mM KH2PO4, […]). The change in fluorescence
46 of AGEs was monitored by spectrofluorometry (Tecan™ Infinite M200, Giessen, The
47 Netherlands). In order to eliminate interference by autofluorescence of the test compounds, a
48 parallel incubation of test substance with BSA at 60°C without D-glucose was performed for all
50 final concentration) were used as reference compounds.
51 The AGEs inhibition was calculated as
55 where F is the fluorescence intensity.
56 calculated using Sigma plot® 13.0.

[2] = tested on: formation of AGEs (BSA-MGO); test: BSA-MGO antiglycation assay; assay type: biochemical
Method: as §1
60 Protein-glyoxal interaction (BSA-MGO assay)
61 The antiglycation assay using methylgloxyl (MGO) was performed according to the method
62 developed by Peng et al. (2007) with slight modifications. Briefly, methylglyoxal (135 μL, 5.75
63 mM) was incubated with BSA (135 μL, 10 mg/mL) dissolved in phosphate buffer (50 mM, pH
64 7.4, containing sodium azide (0.02%), added to prevent bacterial growth) and test compounds
65 (30 μL) at different final concentrations (1.5 – 0.023 mM) in 100% DMSO. The reaction
66 mixture was incubated at 37 °C for one week. Control solutions only contained methylglyoxal
67 (135 μL, 5.75 mM) BSA (135 μL, 1 0mg/mL) and DMSO (100%) only. The blank samples of
68 similar composition were also prepared simultaneously and kept at 4 °C for one week. The
70 440) due to formation of AGEs was monitored by spectrofluorometry (Tecan® Infinite M200,
71 Giessen, The Netherlands). Aminoguanidine (3-0.046 mM final concentration) was used as
72 reference compound. The AGEs inhibition was calculated as
74 % AGEs inhibition = [1–(S–Sb)/(C–Cb)] x 100
76 where S and C were fluorescence of test samples (in DMSO) and control (test mixtures
77 containing only DMSO) incubated at 37 °C, and where Sb and Cb were fluorescence for
78 samples incubated at 4 °C.
79 using Sigma plot® 13.0.

[3] = molecular target: T1, α-glucosidase from Saccharomyces cerevisiae (Saccharomyces cerevisiae, UniProt P53341); test: α-glucosidase inhibition assay; assay type: biochemical; parameters: inhibition: dose or concentration left out as unconfirmed; conditions: read-out: α-glucosidase % inhibition
T1 construct: purchased Sigma-Aldrich
Method: The α-glucosidase assay was carried out according as reported before ([Amin et al., 2016]). The test protocol is attached as Supplementary Material ([Amin et al., 2016]).
81 Inhibition of α-glucosidase.
82 α-Glucosidase inhibitory activity was assayed according to method adopted by Choudhary et al.
83 (2010) with some modifications. Briefly, 50 µL of a solution of α-glucosidase from
84 Saccharomyces cerevisiae (0.2 U/mL in 0.1 M phosphate buffer at pH 6.8, Sigma-Aldrich, St.
85 Louis, MO, USA) was incubated with 20 μL of test compounds or extracts at different
86 concentrations (ranging from 6 mM – 0.372 mM in 25% DMSO for isolated constituents or
87 from 5 mg to 0.039 mg/mL for extracts) at 37 °C for 10 min. Then 50 μl of the substrate,
88 p-nitrophenyl-α-D-glucopyranoside (0.7 mM stock, final concentration 0.29 mM) was added to
89 the reaction mixture and incubated again for 30 min at 37 °C. […]
91 from 834 µg to 6.5 µg/mL for extracts. The reaction was stopped by adding Na2CO3 (100 μl,
92 200 mM stock) solution and the absorbance was measured at 400 nm. Final DMSO
93 concentration remained below 7.5% during the assay.
94 concentration) was used as reference compound.
96 The % inhibition was calculated using the following formula:
98 % Inhibition = 100 – [OD (test sample) / OD (control)] × 100
100 Alpha-glucosidase inhibition was categorized as mild (1-25%), moderate (26-50%), high

[4] = molecular target: T2, 15-LOX from soybean (Glycine max, UniProt P08170); test: 15-lipoxygenase inhibition assay; assay type: biochemical; conditions: at the highest test concentration
T2 sequence (P08170 1-839): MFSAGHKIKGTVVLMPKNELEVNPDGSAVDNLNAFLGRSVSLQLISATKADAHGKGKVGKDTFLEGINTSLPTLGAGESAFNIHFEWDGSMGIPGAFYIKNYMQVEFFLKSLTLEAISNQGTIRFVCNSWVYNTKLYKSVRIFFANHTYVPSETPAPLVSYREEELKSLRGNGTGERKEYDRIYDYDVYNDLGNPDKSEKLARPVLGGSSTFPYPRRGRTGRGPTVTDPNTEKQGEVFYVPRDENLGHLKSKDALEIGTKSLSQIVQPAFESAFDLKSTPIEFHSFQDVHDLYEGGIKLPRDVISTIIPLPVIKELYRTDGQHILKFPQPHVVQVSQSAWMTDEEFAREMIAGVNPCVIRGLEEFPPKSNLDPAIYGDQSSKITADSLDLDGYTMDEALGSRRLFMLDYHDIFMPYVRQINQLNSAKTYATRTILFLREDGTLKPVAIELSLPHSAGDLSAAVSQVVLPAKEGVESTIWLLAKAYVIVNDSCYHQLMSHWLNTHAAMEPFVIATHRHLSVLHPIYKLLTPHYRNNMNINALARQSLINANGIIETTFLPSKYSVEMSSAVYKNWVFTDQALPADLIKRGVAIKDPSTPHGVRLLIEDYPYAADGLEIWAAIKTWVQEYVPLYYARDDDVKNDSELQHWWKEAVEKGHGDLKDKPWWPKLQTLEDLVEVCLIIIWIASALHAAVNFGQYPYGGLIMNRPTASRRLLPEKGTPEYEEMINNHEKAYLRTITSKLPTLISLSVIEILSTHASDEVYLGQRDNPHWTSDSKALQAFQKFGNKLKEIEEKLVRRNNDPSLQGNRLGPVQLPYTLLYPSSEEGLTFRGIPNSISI
Method: The soybean LOX assay is used as an indication of anti-inflammatory activity ([Muller, 1994]), and therefore during the present investigation, 15-LOX from soybean was used for peroxidation of linoleic acid, and inhibition was measured as described previously with slight modifications ([Malterud and Rydland, 2000]). Briefly, 12.5 μL (2–0.062 mM) of sample was dissolved in DMSO, and added to 487.5 μL of enzyme solution (200 U/mL). The mixture was incubated at room temperature for 5 min. Absorbance was recorded immediately after the addition of 500 μL of substrate (250 μM linoleic acid in 0.2 M borate buffer, pH 9) every minute up to 5 min at 234 nm.
% inhibition of enzyme activity was calculated as,
%inhibition of enzyme activity=([ΔA1/Δt]−[ΔA2/Δt])/(ΔA1/Δt)×100
where ΔA1/Δt and ΔA2/Δt are the increase rate in absorbance at 234 nm for sample without test substance and with test substance, respectively.

[5] = tested on: AAPH induced linoleic acid peroxidation; test: Inhibition of linoleic acid lipid peroxidation, AAPH assay; assay type: biochemical; conditions: slope of inhibition time (Tinh) vs. concentration of antioxidant
Method: The inhibition of linoleic acid lipid peroxidation was studied according to [Liegeois et al. (2000)] and [Rajic et al. (2010)]. Briefly, 10 μL of a 16 mM linoleic acid dispersion and 10 μL of the test compound (8-1 μM final concentration) were added to the UV cuvette containing 0.93 mL of 0.05 M phosphate buffer, pH 7.4. The oxidation reaction was initiated under air by the addition of 50 μL (40 mM) of AAPH solution. The rate of oxidation at 37°C was monitored by recording the increase of absorption at 234 nm caused by conjugated diene hydroperoxides. The results were compared to the standard inhibitor (Trolox). The AOP is defined as the slope of the curve representing the inhibition time of oxidation (Tinh) vs. the concentration of antioxidant and is expressed in min/μM.

[6] = tested on: Trypanosoma cruzi, Tulahuen LacZ, clone C4; test: Antimicrobial screening panel: Trypanosoma cruzi; assay type: cell-based
Method: (§2) Fractions and isolated compounds were evaluated for antimicrobial activity in an integrated screening panel, also including the human MRC-5 cell line to assess selectivity, as reported before ([Cos et al., 2006]; [Mesia et al., 2008]; [Baldé et al., 2010]; [Amin et al., 2016]).

[7] = tested on: Escherichia coli; test: Antimicrobial screening panel: Escherichia coli; assay type: cell-based
Method: as §2

[8] = tested on: Leishmania infantum, MHOM/MA/67/ITMAP263; test: Antimicrobial screening panel: Leishmania infantum; assay type: cell-based
Method: as §2

[9] = tested on: Trypanosoma brucei, Squib 427; test: Antimicrobial screening panel: Trypanosoma brucei; assay type: cell-based
Method: as §2

[10] = tested on: Microsporum canis, B68128 Janssen strain; test: Antimicrobial screening panel: Microsporum canis; assay type: cell-based
Method: as §2

T1 sequence (P53341 whole entry): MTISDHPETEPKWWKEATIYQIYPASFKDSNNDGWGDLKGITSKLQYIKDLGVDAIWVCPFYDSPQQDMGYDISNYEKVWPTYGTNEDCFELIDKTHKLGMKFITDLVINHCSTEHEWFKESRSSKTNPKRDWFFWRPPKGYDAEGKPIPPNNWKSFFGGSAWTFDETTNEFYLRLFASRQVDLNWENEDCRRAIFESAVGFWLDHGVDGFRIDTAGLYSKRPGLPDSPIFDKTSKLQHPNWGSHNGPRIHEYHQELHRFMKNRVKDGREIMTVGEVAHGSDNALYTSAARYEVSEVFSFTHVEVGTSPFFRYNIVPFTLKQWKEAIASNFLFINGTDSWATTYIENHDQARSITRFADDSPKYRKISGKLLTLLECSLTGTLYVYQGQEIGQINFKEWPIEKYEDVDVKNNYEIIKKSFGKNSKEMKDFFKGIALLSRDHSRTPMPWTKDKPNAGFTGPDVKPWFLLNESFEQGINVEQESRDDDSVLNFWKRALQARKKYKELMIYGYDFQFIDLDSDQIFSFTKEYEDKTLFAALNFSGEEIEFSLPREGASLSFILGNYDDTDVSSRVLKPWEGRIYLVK

SMILES: N=C(N)NN [Aminoguanidine, reference compound]
IC50, BSA-glucose assay ([1]; fractions and positive control): 199 µg/mL (≈ 2690 µM)
IC50 [1]: 1750 µM
IC50 ([2]; read-out: Protein glycation BSA-MGO IC50): 150 µM

SMILES: CC1(O)C(Cl)C(O)C2(O)C=COC(OC3OC(CO)C(O)C(O)C3O)C12 (centres unmarked) [Compound 4, Linarioside]
Protein glycation BSA-Glucose % inhibition ([1]; isolated constituents, at the highest test concentration of 3 mM): did not present any activity; also recorded: no activity
inhibition [3]: 29%
Protein glycation BSA-MGO % inhibition ([2]; isolated constituents, highest test concentration): 9%
15-LOX assay % inhibition [4]: 8%

IC50 [1]: 230 µM
SMILES: O=c1c(O)c(-c2ccc(O)c(O)c2)oc2cc(O)cc(O)c12 [Quercetin, reference compound]

SMILES: Cc1c(C)c2c(c(C)c1O)CCC(C)(C(=O)O)O2 (centres unmarked) [Trolox, reference compound]
AAPH assay AOP (antioxidant power) [5]: 14.12 min/μM and 14.12^c min/μM

SMILES: O=C(Cn1ccnc1[N+](=O)[O-])NCc1ccccc1 [benznidazol, reference compound]
IC50 [6]: 2.13 µM

IC50 [7]: 2.42 µM
SMILES: O=C(N[C@H](CO)[C@H](O)c1ccc([N+](=O)[O-])cc1)C(Cl)Cl [chloramphenicol]

IC50 [8]: 9.02 µM
SMILES: CCCCCCCCCCCCCCCCOP(=O)([O-])OCC[N+](C)(C)C [miltefosine]

IC50 [9]: 0.03 µM
SMILES: Cc1ccc(C(=O)Nc2ccc(S(=O)(=O)O)c3cc(S(=O)(=O)O)cc(S(=O)(=O)O)c23)cc1NC(=O)c1cccc(NC(=O)Nc2cccc(C(=O)Nc3cc(C(=O)Nc4ccc(S(=O)(=O)O)c5cc(S(=O)(=O)O)cc(S(=O)(=O)O)c45)ccc3C)c2)c1 [suramine]

IC50 [10]: 1.38 µM
SMILES: CN(C/C=C/C#CC(C)(C)C)Cc1cccc2ccccc12 [terbinafin]
